SMILES strings stand for the structures. ≈ marks a conversion by molar mass, not a printed value. Where only a bound is given, the exact number is not on record here.

Results on three compounds are retold here after paper PMC11396667, “Design, Synthesis, and Anticancer and Antibacterial Activities of Quinoline-5-Sulfonamides” (Molecules, 2024).

Assay [1] relates to Staphylococcus aureus ATCC 29213. Description: MIC, microtitration broth method, SA. The assay is classed as cell-based. The conditions noted are these: ATCC29213, 24 h, 37 °C, CaMH broth. The text has this: (§1) Since there is a general decrease in immunity during the treatment of oncological patients, i.e., patients are more susceptible to infectious diseases, it is advantageous if anticancer agents show antimicrobial properties at the same time. Therefore, the effects of the compounds were also investigated against Gram-positive bacteria. For this purpose, the susceptible collection strains of aerobic Staphylococcus aureus ATCC 29213 and facultatively aerobic Enterococcus faecalis ATCC 29212 and resistant clinical isolates of methicillin-resistant S. aureus (MRSA) SA 3202, SA 630 carrying the mecA gene, and vancomycin-resistant isolates of E. faecalis (VRE) 342B, 368, and 725B carrying the vanA gene were selected. Thus, the selection of the studied bacterial strains was adopted following the CLSI ([…]) international reference methodologies.
(§2) The in vitro antibacterial activity of the synthesized compounds was evaluated against representatives of multidrug-resistant bacteria, […] clinical isolates of methicillin-resistant S. aureus: clinical isolates of human origin, MRSA SA 3202, and MRSA SA 630 (National Institute of Public Health, Prague, Czech Republic), carrying the mecA gene. These two clinical isolates were classified as vancomycin-susceptible (but with a higher MIC of vancomycin equal to 2 μg/mL (VA2-MRSA). Vancomycin- and methicillin-susceptible S. aureus ATCC 29213 and vancomycin-susceptible Enterococcus faecalis ATCC 29212, obtained from the American Type Culture Collection, were used as the reference and quality control strains. Three vanA gene-carrying vancomycin-resistant isolates of E. faecalis (VRE 342B, VRE 368, VRE 725B) (Department of Infectious Diseases and Microbiology, Faculty of Veterinary Medicine, University of Veterinary Sciences Brno, Czech Republic) were provided by Oravcova et al..
(§3) The minimum inhibitory concentrations (MICs) were evaluated by the microtitration broth method according to the CLSI, with some modifications. The compounds were dissolved in DMSO (Sigma, St. Louis, MO, USA) to obtain a concentration of […] and diluted in a microtitration plate in an appropriate medium, i.e., Cation-Adjusted Mueller–Hinton Broth (CaMH, Oxoid, Basingstoke, UK) for staphylococci, and Brain Heart Infusion Broth (BHI, Oxoid) for enterococci to reach the final concentration of 256–0.125 µg/mL. Microtiter plates were inoculated with test microorganisms so that the final concentration of bacterial cells was 10^5. Ampicillin, oxacillin, and ciprofloxacin (Sigma) were used as reference drugs. A drug-free control and a sterility control were included. The plates were incubated for 24 h at 37 °C for staphylococci and enterococci. […] The experiments were repeated three times.

Assay [2] relates to methicillin-resistant S. aureus SA 3202. Briefly: MIC, microtitration broth method, MRSA1. In kind it is cell-based. The conditions noted are these: Staphylococcus aureus; 24 h, 37 °C, CaMH broth.
Description: as §1, §2, §3

Assay [3] concerns methicillin-resistant S. aureus SA 630. Briefly: MIC, microtitration broth method, MRSA2. The assay is classed as cell-based. The conditions noted are these: Staphylococcus aureus; 24 h, 37 °C, CaMH broth.
Description: as §1, §2, §3

For assay [4], the system named is Enterococcus faecalis ATCC 29212. Briefly: MIC, microtitration broth method, EF. The assay is classed as cell-based. The conditions noted are these: ATCC29212, 24 h, 37 °C, BHI broth.
Description: as §1, §2, §3

The test system of assay [5] is Staphylococcus aureus ATCC 29213. Briefly: MBC, agar aliquot subculture method, SA. The assay is classed as cell-based. The conditions noted are these: ATCC29213, 99.9% decrease in CFU, 24 h, 37 °C. The text has this: (§4) The activities of the individual derivatives were expressed as minimum inhibitory concentrations (MICs) and minimum bactericidal concentrations (MBCs) and are shown in Table 3 together with the values of the antibiotics used as standards for comparison. […] MBC values of bactericidal compounds are indicated in bold in Table 3.
(§5) For the above-mentioned strains/isolates, the agar aliquot subculture method was used as a test for bactericidal agents. After the MIC value determination, the inoculum was transferred to CaMH (Oxoid) for staphylococci, and BHI (Oxoid) for enterococci medium using a multipoint inoculator. The plates were incubated in a thermostat at 37 °C for 24 h. The lowest concentration of test compound at which ≤5 colonies were obtained was then evaluated as MBC, corresponding to a 99.9% decrease in CFU relative to the original inoculum.

The test system of assay [6] is methicillin-resistant S. aureus SA 3202. Description: MBC, agar aliquot subculture method, MRSA1. In kind it is cell-based. The conditions noted are these: Staphylococcus aureus; 99.9% decrease in CFU, 24 h, 37 °C.
Description: as §4, §5

Assay [7] deals with methicillin-resistant S. aureus SA 630. Description: MBC, agar aliquot subculture method, MRSA2. The assay is classed as cell-based. The conditions noted are these: Staphylococcus aureus; 99.9% decrease in CFU, 24 h, 37 °C.
Description: as §4, §5

In assay [8] the test system is Enterococcus faecalis ATCC 29212. Description: MBC, agar aliquot subculture method, EF. In kind it is cell-based. The conditions noted are these: ATCC29212, 99.9% decrease in CFU, 24 h, 37 °C.
Description: as §4, §5

For another assay, the system named is S. aureus ATCC 29213. Briefly: MTT assay of bacterial respiratory activity. In kind it is cell-based, Staphylococcus aureus. The conditions noted are these: S. aureus ATCC 29213. From the text: The MTT assay can be used to assess cell growth by measuring respiration. Bacterial cell respiratory activity (which is ultimately reflected in their viability) of less than 70% after exposure to the MIC values for each test compound is considered as a positive result for this test. This low level of cellular oxidative metabolism indicates inhibition of cell growth by inhibition of respiration. The lowest multiples of the MIC values by which inhibition of S. aureus ATCC 29213 viability [%] greater than 70% was achieved are shown in Table 4. […] Therefore, the antibacterial activity of the discussed compounds cannot be explained solely on the basis of respiration inhibition, so it is very difficult to draw a conclusion regarding the actual mechanism of action, since 8-HQs are multi-target agents, i.e., they affect several different targets at once (as discussed in the section dedicated to anticancer activity), which subsequently leads to the death of the treated resistant microorganisms.
Compounds were prepared as previously stated and diluted in CaMH broth for S. aureus to achieve the desired final concentrations. S. aureus bacterial suspension in sterile distilled water at 0.5 McFarland was diluted 1:3. Inocula were added to each well by multi-inoculator. Diluted mycobacteria in broth free from inhibiting compounds were used as the growth control. All compounds were prepared in duplicate. Plates were incubated at 37 °C for 24 h for S. aureus. After the incubation period, 10% well volume of MTT (3-(4,5-dimethylthiazol-2-yl)-2,5-diphenyltetrazolium bromide) reagent (Sigma) was mixed into each well and incubated at 37 °C 1 h for S. aureus. Then, 100 µL of 17% sodium dodecyl sulphate in 40% dimethylformamide was added to each well. The plates were read at 570 nm. The absorbance readings from the cells grown in the presence of the tested compounds were compared with uninhibited cell growth to determine the relative percent inhibition. The percent inhibition was determined through MTT assay. The percent viability is calculated through the comparison of a measured value and that of the uninhibited control: % viability = OD570E/OD570P × 100, where OD570E is the reading from the compound-exposed cells, while OD570P is the reading from the uninhibited cells (positive control). Cytotoxic potential is determined by a percent viability of <70% [81, 82].

Assay [9] relates to methicillin-resistant S. aureus SA 3202. Further details: method as in PMID 25692135. The conditions noted are these: isolate classified as vancomycin-susceptible (VA2-MRSA); ref [76]; cited from earlier work.
In assay [10] the test system is methicillin-resistant S. aureus SA 630. Further details: method as in PMID 25692135. The conditions noted are these: isolate classified as vancomycin-susceptible (VA2-MRSA); ref [76]; cited from earlier work.

For the compound `CC1(C)S[C@@H]2[C@H](NC(=O)[C@H](N)c3ccccc3)C(=O)N2[C@H]1C(=O)O` [AMP, ampicillin, reference compound], the MIC was 5.72 µM (≈ 2 µg/mL) in assay [1], above 45.8 µM in assay [2], above 45.8 µM in assay [3] and 2.81 µM (≈ 0.982 µg/mL) in assay [4]. For the same compound, the MBC in assay [5] is 5.72 µM (≈ 2 µg/mL); in assay [6], above 45.8 µM; in [7] it was above 45.8 µM; in assay [8], 2.81 µM (≈ 0.982 µg/mL). Besides, the “Conc.: lowest multiple of MIC with at least 70% inhibition of respiratory activity” value with S. aureus ATCC 29213 is given as 16× MIC (>16× MBC).
Turning to `Cc1onc(-c2ccccc2)c1C(=O)N[C@@H]1C(=O)N2[C@@H]1SC(C)(C)[C@@H]2C(=O)O` [OXA, oxacillin, reference compound], the figures for the MIC in assay [1], in assay [2] and in assay [3] were 1.25 µM (≈ 0.502 µg/mL), 79.8 µM (≈ 32 µg/mL) and 29.7 µM (≈ 11.9 µg/mL), respectively. Further, the MBC in assay [5] was determined as 1.25 µM (≈ 0.502 µg/mL); in [6], 79.8 µM (≈ 32 µg/mL); in assay [7], 29.7 µM (≈ 11.9 µg/mL).
`CN[C@H](CC(C)C)C(=O)N[C@H]1C(=O)N[C@@H](CC(N)=O)C(=O)N[C@H]2C(=O)N[C@H]3C(=O)N[C@H](C(=O)N[C@H](C(=O)O)c4cc(O)cc(O)c4-c4cc3ccc4O)[C@H](O)c3ccc(c(Cl)c3)Oc3cc2cc(c3O[C@@H]2O[C@H](CO)[C@@H](O)[C@H](O)[C@H]2O[C@H]2C[C@](C)(N)[C@H](O)[C@H](C)O2)Oc2ccc(cc2Cl)[C@H]1O` [vancomycin]: the “MIC of vancomycin, MRSA SA 3202” value in [9] was 2 µg/mL. For the same compound, the “MIC of vancomycin, MRSA SA 630” value in assay [10] is 2 µg/mL.

As usually defined, the MIC is the lowest concentration found to suppress growth. A low value points to inhibition by little substance. One may read the MBC as the lowest tested concentration that kills the bacteria rather than only halting them. A lower MBC goes with greater bactericidal potency.
